Laboratory results reported in patent US8759342B2, “Benzo[1,4]oxazin-3-one, benzo[1,4]thiazin-3-one and quinolin-2-one urotensin II receptor antagonists” (Janssen Pharmaceutica NV, priority 2006, dated 2014).
Like-named read-outs stand apart in the source and are kept apart here.

Assays:
[1] = target: T1, rat GPR14 (U-II receptor) (Rattus norvegicus, UniProt P49684); test: Calcium flux assay (FLIPR); assay type: cell-based; details: Inhibition of acetyl-cyclic[Cys-Phe-Trp-Lys-(2-Nal)-Cys]-NH2 (1 nM) induced Ca2+ mobilization (FLIPR) in CHO cells transfected with rat UII receptor; 5 min incubation
T1 construct: expressed in transfected cells
T1 sequence (P49684 1-386): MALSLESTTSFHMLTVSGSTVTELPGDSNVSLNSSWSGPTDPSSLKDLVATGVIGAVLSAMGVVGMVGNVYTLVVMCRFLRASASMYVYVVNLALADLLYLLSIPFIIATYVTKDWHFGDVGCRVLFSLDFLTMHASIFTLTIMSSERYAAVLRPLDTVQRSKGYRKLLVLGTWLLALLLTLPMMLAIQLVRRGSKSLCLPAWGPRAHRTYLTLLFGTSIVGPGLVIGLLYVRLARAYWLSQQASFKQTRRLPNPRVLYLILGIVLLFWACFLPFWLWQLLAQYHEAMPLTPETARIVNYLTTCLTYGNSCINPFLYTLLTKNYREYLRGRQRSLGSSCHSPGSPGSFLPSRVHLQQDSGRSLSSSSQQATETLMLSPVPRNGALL
Outline: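 Stable CHO cell line expressing cloned rat U-II receptor, seeded 24 h before assay, loaded with FLIPR calcium dye in HBSS/20 mM HEPES/0.1% BSA/2.5 mM probenecid, pH 7.4, for 1 hr at 37° C. Calcium mobilization read at room temperature (23° C.).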

Human UII receptors = target: T2, Human UII receptors (Homo sapiens, UniProt Q9UKP6); test: Human radioligand binding assay, (125I)-U-II on HSMM
T2 construct: host or cells: Human Skeletal Muscle Myoblasts (HSMM), intact adherent cells
T2 sequence (Q9UKP6 1-389): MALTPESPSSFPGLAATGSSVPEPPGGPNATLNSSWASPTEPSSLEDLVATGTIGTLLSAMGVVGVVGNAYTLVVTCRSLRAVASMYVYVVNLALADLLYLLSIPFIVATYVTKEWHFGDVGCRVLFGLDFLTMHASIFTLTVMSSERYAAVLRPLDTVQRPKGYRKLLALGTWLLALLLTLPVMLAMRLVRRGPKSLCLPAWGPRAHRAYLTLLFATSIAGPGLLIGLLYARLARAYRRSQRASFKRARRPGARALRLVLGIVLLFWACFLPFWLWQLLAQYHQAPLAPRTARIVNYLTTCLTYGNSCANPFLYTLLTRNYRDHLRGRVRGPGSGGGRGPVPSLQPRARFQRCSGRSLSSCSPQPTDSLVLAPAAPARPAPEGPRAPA
Description: Human Skeletal Muscle Myoblasts (HSMM) were obtained from Cambrex, and were cultured according to manufacturer's instruction. Cell viability was examined by trypan blue exclusion. Cells at less than 4 passages were used in all studies. […] The binding medium used was Dulbecco's modified Eagle's medium (DMEM) containing 2 mg/ml BSA and 25 mM HEPES (pH 7.4). […] The cells were washed 4× with the binding medium and solubilized in 1% SDS and 0.5 N NaOH. Radioactivity was quantified by gamma counting.

[2] = 0.150 nM (125I)-U-II, intact Human Skeletal Muscle Myoblasts, 3 hrs, 25° C., read-out: Ki

SMILES | IC50 [1] [nM] | Ki (Human UII receptors; [2]) [nM] | Ki (Human UII receptors) [nM]
O=C(NCCc1ccccc1)c1cc(Cl)ccc1C1CCN(CCN2C(=O)COc3ccccc32)CC1 [Cpd 57, 5-chloro-2-{1-[2-(3-oxo-2,3-dihydro-benzo[1,4]oxazin-4-yl)-ethyl]-piperidin-4-yl}-N-phenethyl-benzamide] | 1300 | 190 | 
CC(C)(C)CC(=O)N1CCC(CNC(=O)c2cc(Cl)ccc2C2CCN(CCN3C(=O)COc4ccccc43)CC2)CC1 [Cpd 65, 5-chloro-N-[1-(3,3-dimethyl-butyryl)-piperidin-4-ylmethyl]-2-{1-[2-(3-oxo-2,3-dihydro-benzo[1,4]oxazin-4-yl)-ethyl]-piperidin-4-yl}-benzamide] | 330 | 32 | 
O=C(NCCCCNC(=O)c1cc(Cl)ccc1C1CCN(CCN2C(=O)COc3ccccc32)CC1)OCc1ccccc1 [Cpd 69, [4-(5-chloro-2-{1-[2-(3-oxo-2,3-dihydro-benzo[1,4]oxazin-4-yl)-ethyl]-piperidin-4-yl}-benzoylamino)-butyl]-carbamic acid benzyl ester] | 150 | 62 | 
CC(C)(C)OC(=O)NCCCCCNC(=O)c1ccccc1[C@@H]1C[C@H]2CC[C@@H](C1)N2CCN1C(=O)COc2ccccc21 [Cpd 98, [5-(2-{8-[2-(3-oxo-2,3-dihydro-benzo[1,4]oxazin-4-yl)-ethyl]-8-aza-bicyclo[3.2.1]oct-3-yl}-benzoylamino)-pentyl]-carbamic acid tert-butyl ester] | 1600 | 1400 | 
O=C(NCCc1ccc(Br)cc1)c1ccccc1C1CCN(CCN2C(=O)COc3ccccc32)CC1 [Cpd 34, N-[2-(4-bromo-phenyl)-ethyl]-2-{1-[2-(3-oxo-2,3-dihydro-benzo[1,4]oxazin-4-yl)-ethyl]-piperidin-4-yl}-benzamide] | 3000 | 620 | 
O=C(NCCNC(=O)c1ccccc1C1CCN(CCN2C(=O)COc3ccccc32)CC1)Nc1cccc2ccccc12 [Cpd 55, N-[2-(3-naphthalen-1-yl-ureido)-ethyl]-2-{1-[2-(3-oxo-2,3-dihydro-benzo[1,4]oxazin-4-yl)-ethyl]-piperidin-4-yl}-benzamide] | 2000 | 840 | 
CC(C)(C)OC(=O)NCCOCCNC(=O)c1cc(Cl)ccc1C1CCN(CCN2C(=O)COc3ccccc32)CC1 [Cpd 79, {2-[2-(5-chloro-2-{1-[2-(3-oxo-2,3-dihydro-benzo[1,4]oxazin-4-yl)-ethyl]-piperidin-4-yl}-benzoylamino)-ethoxy]-ethyl}-carbamic acid tert-butyl ester] | 37 |  | 53

Now from value to compound, other results behind:

IC50 [1] [nM] | Ki (Human UII receptors; [2]) [nM] | SMILES | Ki (Human UII receptors) [nM]
2000 | 210 | CC(CN1C(=O)COc2ccccc21)N1CCC(c2ccc(Cl)cc2C(=O)NCC2CCN(S(=O)(=O)Cc3ccccc3)CC2)CC1 (stereo not shown) [Cpd 84, 5-chloro-2-{1-[1-methyl-2-(3-oxo-2,3-dihydro-benzo[1,4]oxazin-4-yl)-ethyl]-piperidin-4-yl}-N-(1-phenylmethanesulfonyl-piperidin-4-ylmethyl)-benzamide] | 
100 | 47 | CC(C)(C)OC(=O)N1CCC(CCNC(=O)c2cc(Cl)ccc2C2CCN(CCN3C(=O)COc4ccccc43)CC2)CC1 [Cpd 68, 4-[2-(5-chloro-2-{1-[2-(3-oxo-2,3-dihydro-benzo[1,4]oxazin-4-yl)-ethyl]-piperidin-4-yl}-benzoylamino)-ethyl]-piperidine-1-carboxylic acid tert-butyl ester] | 
15 | 57 | CC(C)(C)OC(=O)N1CCN(CCNC(=O)c2cc(Cl)ccc2C2CCN(CCN3C(=O)COc4ccccc43)CC2)CC1 [Cpd 66, 4-[2-(5-chloro-2-{1-[2-(3-oxo-2,3-dihydro-benzo[1,4]oxazin-4-yl)-ethyl]-piperidin-4-yl}-benzoylamino)-ethyl]-piperazine-1-carboxylic acid tert-butyl ester] | 
27 | 37 | O=C(NCCCCCNC(=O)c1cc(Cl)ccc1C1CCN(CCN2C(=O)COc3ccccc32)CC1)NCc1ccccc1 [Cpd 77, N-[5-(3-benzyl-ureido)-pentyl]-5-chloro-2-{1-[2-(3-oxo-2,3-dihydro-benzo[1,4]oxazin-4-yl)-ethyl]-piperidin-4-yl}-benzamide] | 
